Data taken from patent publication US9511143B2, “Aqueous compositions comprising arbekacin” (Meiji Seika Pharma Co., Ltd., priority 2011, dated 2016).

Key:
[1] = tested on: P. aeruginosa MSC17707; assay: Experimental pneumonia caused by Pseudomonas aeruginosa in neutropenic mice, inhalation therapy; assay type: in vivo; conditions: for viable cell counts in the lung in comparison to the non-treatment control group: all the dose levels; for Number of intrapulmonary viable cells: 5 min inhalation 2 h after infection, count 20 h after infection, neutropenic mice, mean ± SD
Method: The therapeutic effect of arbekacin inhalation on experimental pneumonia in neutropenic mice, caused by P. aeruginosa, was compared with the therapeutic effect of amikacin and tobramycin.
Cyclophosphamide (Sigma-Aldrich Co.) was dissolved in physiological saline. Four to five week-old Crlj:CD1(ICR) male mice were immunosuppressed by intraperitoneal injection of 150 and 100 mg/kg of cyclophosphamide solution 4 days and 1 day before infection, respectively. Thereafter, pulmonary infection was induced by intranasal inoculation of amikacin- and tobramycin-resistant P. aeruginosa having the aac(6)-lae encoding an aminoglycoside modifying enzyme. The antibiotics dissolved in saline were administered to each mouse using an electronic vibrating membrane nebulizer (eFlow®, PARI Pharma GmbH, spray flow rate: approximately 0.5 ml/min) two hours after the infection, and viable cells per lung were counted 20 hours after the infection. As for the doses of arbekacin, three levels were set at 3, 10 and 30 mg/ml, and the respective doses of amikacin and tobramycin were at three levels of 10, 30, and 100 mg/ml. The inhalation duration was five minutes. Meanwhile, physiological saline was administered to a non-treatment control group.

[2] = tested on: guinea pigs; set-up: species or system guinea pig (male Hartley strain); conditions: guinea pig, in vivo
Method: A guinea-pig cough induction model was used to investigate differences in cough induction between the sulfate and hydrochloride forms of arbekacin. The tested substances were commercially available arbekacin sulfate (ABK—H2SO4) and arbekacin hydrochloride (ABK—HCl) that was prepared from arbekacin free base according to the method described in Example 2. The concentration of dosing solutions was set to be 25 mg/ml. In addition, physiological saline was used as a negative control agent whereas citric acid (30 mg/ml) was used as a positive control agent.
Male Hartley strain guinea pigs were subjected to the experiment, with 10 animals per group. […] Cough was detected on the basis of the following indicators: observation of symptoms, analysis of a respiration pattern in the soma-side by a double-flow plethysmograph method using a multi-functional respiration measuring device (Win Pulmos-I, M-I-P-S Corporation), and pressure changes in head-side and soma-side chambers measured by a pressure transducer (blood pressure monitoring kit, Japan Becton, Dickinson and Company). The case, in which a motion of coughing in the symptom observation was noted together with typical changes in the pressure in the head-side and soma-side chambers and in the respiration pattern of the soma side at the time of coughing, was determined to be a cough reflex. […] Then, the occurrence of cough reflex was counted. […]

SMILES | viable cell counts in the lung in comparison to the non-treatment control group [1] | Number of intrapulmonary viable cells ([1]; level of drug 10 mg/ml) [log10 CFU/lung] | Number of intrapulmonary viable cells ([1]; level of drug 30 mg/ml) [log10 CFU/lung] | Number of intrapulmonary viable cells ([1]; level of drug 100 mg/ml) [log10 CFU/lung] | Number of intrapulmonary viable cells ([1]; level of drug 3 mg/ml) [log10 CFU/lung] | therapeutic effect compared to amikacin and tobramycin ([1]; same dosage (10 or 30 mg/ml)) | number of occurrence of cough reflex / cough induction, comparison between groups [2]
NCC[C@H](O)C(=O)N[C@@H]1C[C@H](N)[C@@H](O[C@H]2O[C@H](CN)[C@@H](O)[C@H](O)[C@H]2O)[C@H](O)[C@H]1O[C@H]1O[C@H](CO)[C@@H](O)[C@H](N)[C@H]1O [Amikacin, amikacin] | significantly decreased | 5.65 ± 1.55 | 4.46 ± 1.68 | 2.65 ± 1.74 | – | – | –
NCC[C@H](O)C(=O)N[C@@H]1C[C@H](N)[C@@H](O[C@H]2O[C@H](CN)CC[C@H]2N)[C@H](O)[C@H]1O[C@H]1O[C@H](CO)[C@@H](O)[C@H](N)[C@H]1O [Arbekacin, arbekacin] | significantly decreased | 2.20 ± 0.99 | 1.98 ± 0.83 | – | 4.07 ± 2.18 | significantly superior | –
O=C(O)CC(O)(CC(=O)O)C(=O)O [Citric Acid, citric acid] | – | – | – | – | – | – | significantly higher
NC[C@H]1O[C@H](O[C@H]2[C@H](O)[C@@H](O[C@H]3O[C@H](CO)[C@@H](O)[C@H](N)[C@H]3O)[C@H](N)C[C@@H]2N)[C@H](N)C[C@@H]1O [Tobramycin, tobramycin] | significantly decreased | 5.74 ± 1.57 | 3.48 ± 1.85 | 3.53 ± 1.88 | – | – | –
